Patent US12410157B2, “Compound useful as toll-like receptor 7 activation inhibitor” (TOYAMA PREFECTURAL UNIVERSITY, priority 2020, dated 2025)
Several values for one entry are separate records, joined by “and”; a condition that tells them apart may be missing. Equal entries are not always repeated. Entries after “also recorded” stand apart in the source; their conditions may differ. Structures can show the parent of a compound that is named as a salt.

Columns and labels:
TLR7 [1] = molecular target: T1, TLR7 (Mus musculus, UniProt P58681); assay: TLR7 inhibition (R848-induced serum IFN-α) by intraperitoneal administration in mice; format: in vivo, mice (C57BL/6N); conditions: Example 13
T1 construct: from tissue; host or cells: whole animal, C57BL/6N mice (serum IFN-α after R848)
T1 sequence (P58681 27-1050): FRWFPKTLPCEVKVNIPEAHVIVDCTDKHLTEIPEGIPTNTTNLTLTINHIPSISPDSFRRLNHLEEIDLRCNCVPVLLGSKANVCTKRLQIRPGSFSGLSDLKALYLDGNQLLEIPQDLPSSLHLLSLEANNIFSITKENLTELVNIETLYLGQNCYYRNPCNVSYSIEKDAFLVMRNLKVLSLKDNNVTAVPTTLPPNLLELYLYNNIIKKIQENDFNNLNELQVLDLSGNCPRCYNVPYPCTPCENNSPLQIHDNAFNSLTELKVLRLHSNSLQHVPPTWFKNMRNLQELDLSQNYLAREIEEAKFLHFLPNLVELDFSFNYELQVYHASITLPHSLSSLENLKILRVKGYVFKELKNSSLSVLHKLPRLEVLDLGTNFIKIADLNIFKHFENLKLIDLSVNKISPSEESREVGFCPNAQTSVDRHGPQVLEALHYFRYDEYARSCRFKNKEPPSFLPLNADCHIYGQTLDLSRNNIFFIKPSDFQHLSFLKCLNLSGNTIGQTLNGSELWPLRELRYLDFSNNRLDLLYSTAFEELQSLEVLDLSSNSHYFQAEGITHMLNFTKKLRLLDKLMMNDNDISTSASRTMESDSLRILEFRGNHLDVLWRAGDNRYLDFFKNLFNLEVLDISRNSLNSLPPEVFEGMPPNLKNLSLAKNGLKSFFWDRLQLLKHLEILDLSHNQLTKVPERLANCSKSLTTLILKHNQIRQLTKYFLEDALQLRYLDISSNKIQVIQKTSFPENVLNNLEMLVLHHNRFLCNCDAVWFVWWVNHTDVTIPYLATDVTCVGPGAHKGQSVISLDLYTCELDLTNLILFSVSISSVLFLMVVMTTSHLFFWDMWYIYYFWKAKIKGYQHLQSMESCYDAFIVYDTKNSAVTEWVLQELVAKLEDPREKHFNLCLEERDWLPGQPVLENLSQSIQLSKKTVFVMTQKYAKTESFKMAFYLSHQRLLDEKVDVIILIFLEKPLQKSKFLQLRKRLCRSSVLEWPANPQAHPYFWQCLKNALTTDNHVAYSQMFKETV
Method: Normal mice (C57BL/6N, 11 weeks old, female) were administered B2-24-4-5A·HCOOH (1, 5, 10, 100 and 1000 μg) or hydroxychloroquine sulfate (HCQ, 1000 μg) as a comparison drug intraperitoneally, followed by 5 μg of R848 after 30 minutes. The solvent was saline solution. 1 hour after R848 administration, blood was collected and the concentration of IFN-α in the serum was quantified using ELISA (used kit: Mouse IFN alpha Platinum ELISA (trade name), eBioscience). The plots in FIG. 7 represent the data for each individual, each bold line represents the mean value of each group data, and each error bar represents the standard error of each group data.
The same method as in Example 13 was used to study the TLR7 inhibition effect of intraperitoneal administration of B2-24-4·HCl, B2-24-4-5A or B2-24-4-5A·HCOOH in mice. B2-24-4·HCl, B2-24-4-5A and B2-24-4-5A·HCOOH were administered at a dose of 10 μg. The plots in FIG. 8 represent the data for each individual, each bold line represents the mean of each group data, and each error bar represents the standard error of each group data.

[2] = molecular target: B lymphocyte stimulator (BLyS) (Homo sapiens, UniProt Q9Y275); conditions: after 52 weeks of intravenous administration (10 mg/kg); cited from earlier work
Sequence of B lymphocyte stimulator (BLyS) (Q9Y275 134-285 limits assumed): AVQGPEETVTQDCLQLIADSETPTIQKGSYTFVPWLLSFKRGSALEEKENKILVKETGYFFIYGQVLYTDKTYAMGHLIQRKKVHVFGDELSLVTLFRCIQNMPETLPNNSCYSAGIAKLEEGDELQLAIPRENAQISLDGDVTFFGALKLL

TLR7 [3] = molecular target: T2, TLR7 (Homo sapiens, UniProt Q9NYK1); assay: TLR7 inhibitory effect (IL-6) in PBMCs from patients with systemic lupus erythematosus; format: cell-based; conditions: SLE patient PBMCs
T2 construct: PBMCs were isolated from 7 mL of blood collected from patients with systemic lupus erythematosus; endogenous in cells; host or cells: PBMCs from patients with systemic lupus erythematosus
T2 sequence (Q9NYK1 27-1049): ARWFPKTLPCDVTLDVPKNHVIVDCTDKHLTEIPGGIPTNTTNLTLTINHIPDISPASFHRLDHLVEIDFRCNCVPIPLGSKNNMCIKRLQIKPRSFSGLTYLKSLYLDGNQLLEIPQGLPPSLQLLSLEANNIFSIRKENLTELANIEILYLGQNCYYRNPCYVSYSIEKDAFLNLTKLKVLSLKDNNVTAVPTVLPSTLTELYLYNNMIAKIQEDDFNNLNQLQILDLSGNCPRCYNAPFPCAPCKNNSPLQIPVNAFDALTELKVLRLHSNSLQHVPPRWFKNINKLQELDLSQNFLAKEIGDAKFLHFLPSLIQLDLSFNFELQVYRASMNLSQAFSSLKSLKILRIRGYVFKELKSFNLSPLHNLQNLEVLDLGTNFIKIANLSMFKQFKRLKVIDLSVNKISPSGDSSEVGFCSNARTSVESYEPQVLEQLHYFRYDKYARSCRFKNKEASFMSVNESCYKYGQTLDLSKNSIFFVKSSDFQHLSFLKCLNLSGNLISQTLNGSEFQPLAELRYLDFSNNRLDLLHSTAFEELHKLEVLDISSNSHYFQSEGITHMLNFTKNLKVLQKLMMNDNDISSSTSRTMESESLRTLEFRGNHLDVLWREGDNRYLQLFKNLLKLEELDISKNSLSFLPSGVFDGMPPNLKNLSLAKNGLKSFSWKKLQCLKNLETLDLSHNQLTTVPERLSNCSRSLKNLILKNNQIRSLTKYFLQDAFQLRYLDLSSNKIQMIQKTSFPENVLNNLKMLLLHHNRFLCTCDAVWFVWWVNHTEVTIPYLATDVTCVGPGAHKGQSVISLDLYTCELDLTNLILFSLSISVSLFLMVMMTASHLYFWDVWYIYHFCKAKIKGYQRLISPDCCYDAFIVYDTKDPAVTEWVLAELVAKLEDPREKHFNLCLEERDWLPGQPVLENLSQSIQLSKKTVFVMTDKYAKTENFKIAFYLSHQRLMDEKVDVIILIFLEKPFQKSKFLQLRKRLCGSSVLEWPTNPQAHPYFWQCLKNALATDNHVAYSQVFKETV
Method: The TLR7 inhibitory effect of B2-24-4-5A·HCOOH on PBMCs derived from patients with systemic lupus erythematosus was studied. PBMCs were isolated from 7 mL of blood collected from patients with systemic lupus erythematosus. Isolated PBMCs were spread into each well of a 96-well plate containing RPMI 1640 medium containing 10% (v/v) fetal calf serum (FCS), penicillin, streptomycin, L-glutamic acid, and 2-mercaptoethanol at 0.5×10^5/100 μL and incubated at 37° C. in the presence of 5% (v/v) CO2. 50 μL of B2-24-4-5A·HCOOH, B2-24-4·HCl or the comparative drug hydroxychloroquine sulfate (HCQ) was added to each well to achieve a final concentration of 0.1 μM, 0.5 μM, 1 μM, 5 μM, 10 μM or 50 μM and incubated for 30 minutes. The TLR7 ligand, Gardiquimod (Invivogen), was added at a final concentration of 3 μg/mL and incubated for 24 hours. After incubation, all culture media were collected and the concentration of IL-6 in the culture medium was quantified using ELISA (used kit: human IL-6 DuoSet ELISA (trade name), manufactured by R&D Systems).

[4] = system: systemic lupus erythematosus model mice (NZBWF1); assay: Therapeutic effect in mouse model of spontaneous systemic lupus erythematosus; format: in vivo
Method: Systemic lupus erythematosus model mice (NZBWF1, 20 weeks old, female, n=55) were divided into saline-administered group (control, n=25), B2-24-4-5A·HCOOH-administered group (n=10), B2-24-4·HCOOH-administered group (n=5) and HCQ-administered group (n=15). The saline-administered group received saline (100 l) orally once a day, every day; the B2-24-4-5A·HCOOH-administered group received 10 mg/kg of B2-24-4-5A·HCOOH (100 l) orally once a day, every day; the B2-24-4·HCOOH-administered group received 10 mg/kg of B2-24-4·HCOOH (100 l) orally once a day, every day; the HCQ-administered group received 10 mg/kg of HCQ (100 l) orally once a day, every day. Fifteen weeks after the start of treatment, urine was collected from surviving mice in the saline-administered group (control, n=17), B2-24-4-5A·HCOOH-administered group (n=10), B2-24-4·HCOOH-administered group (n=5), and HCQ-administered group (n=12), and the mice were euthanized. After euthanasia, blood was drawn from the abdominal aorta of the mice, and the kidneys and spleen were removed.
Mice that died of natural causes during the 15-week period from the start of treatment were counted as deaths, and survival analysis was performed using the Kaplan Meier method. Blood collected from the abdominal aorta of each mouse, excluding the deceased cases, was centrifuged and serum was prepared. Determination of urea nitrogen and creatinine levels in serum was entrusted to Oriental Yeast Co. Albumin levels in urine were determined by ELISA (used kit: Levis Urinary Albumin-Mouse (S-type) (trade name) (Fujifilm Wako Shibayagi Corporation)). The removed kidneys were fixed with 4% (w/v) paraformaldehyde, and immunohistochemical staining was entrusted to Morpho Technology, Inc. In PAS-stained kidney tissue sections, histological findings of 100 glomeruli were evaluated. For increased cells and substrate in the mesangial area, endothelial cell swelling and cellular infiltration of the capillary lumen (intratubular proliferation), and glomeruli with inflammatory crescents (extratubular proliferation), each of the 100 glomeruli was assigned a grade from grade 0 to grade 2 according to severity and scored on a 6-point scale.
FIG. 10F is a photograph showing C3 deposition in the glomeruli of a mouse (#1) in the saline-administered group, a mouse (#10) in the B2-24-4-5A·HCOOH-administered group, a mouse (#4) in the B2-24-4·HCOOH-administered group and a mouse (#14) in the HCQ-administered group. […] In the renal tissue sections of a mouse (#1) in the saline-administered group, findings of active glomerulonephritis such as diffuse mesangial and intratubular proliferation were observed. […] The plots in FIGS. 10B, 10C, and 10D show the data for each individual, each bold line is the mean of the group data, and each error bar standard error. Scale bars in FIGS. 10E and 10F represent 100 μm. […]

With `C=C(C)[C@@H]1CC[C@]2(COC(=O)C2)C[C@H]1c1ccc(CN2CCNCC2)cc1` [B2-24-4-5A] the “Order of strength of the effect on IFN-α production” value (TLR7 [1]; 10 μg, FIG. 8) was “stronger with B2-24-4-5A·HCOOH, B2-24-4-5A and B2-24-4·HCl in that order” and the “IFN-α production induced by R848” value (TLR7 [1]; dose of 10 μg intraperitoneally) was “attenuated”.

For belimumab, the Responder rate [2] is listed as 54%.

For `CCN(CCO)CCCC(C)Nc1ccnc2cc(Cl)ccc12` (centres unmarked) [HCQ, hydroxychloroquine sulfate], the “Order of strength of the effect on IL-6 production” value (TLR7 [3]; FIG. 4) was “stronger for B2-24-4·HCl, B2-24-4-5A·HCOOH, and HCQ, in that order”, the “IL-6 production induced by gardiquimod stimulation” value (TLR7 [3]; 0.1-50 μM, Gardiquimod 3 μg/mL, 24 hours) was “attenuated” and the “Surviving mice fifteen weeks after the start of treatment” value ([4]; 10 mg/kg orally once a day, groups started with n=10, n=5, n=15 (HCQ)) was 12. For the same compound, the Tubulo-interstitial inflammation ([4]; per mouse) was “Not found; also recorded: Found”, the score ([4]; per mouse, histological score on a 6-point scale) was 1.74 and 0.70 and 0.00 and 1.64 and 0.30 and 2.58 and 0.07 and 0.14 and 3.14 and 0.37 and 2.19 and 0.18 and the “Inside 0” value ([4]; per mouse, of 100 glomeruli, endothelial cell swelling and cellular infiltration of capillary lumen, Grade 0) was 43 and 87 and 100 (2×) and 38 and 95 and 12 and 99 and 15 and 96 and 22 and 98. For the same compound, the “Inside 1” value ([4]; per mouse, of 100 glomeruli, endothelial cell swelling and cellular infiltration of capillary lumen, Grade 1) was 38 and 13 and 0 (2×) and 47 and 5 and 36 and 1 and 64 and 4 and 58 and 2, the “Inside 2” value ([4]; per mouse, of 100 glomeruli, endothelial cell swelling and cellular infiltration of capillary lumen, Grade 2) was 19 and 0 (7×) and 15 and 52 and 21 and 20 and the “Outside 0” value ([4]; per mouse, of 100 glomeruli, glomerulus with semilunar, Grade 0) was 100 (10×) and 53 and 96. The “Outside 1” value ([4]; per mouse, of 100 glomeruli, glomerulus with semilunar, Grade 1) was 0 (10×) and 26 and 4, the “Outside 2” value ([4]; per mouse, of 100 glomeruli, glomerulus with semilunar, Grade 2) was 0 (11×) and 21 and the Mes0 ([4]; per mouse, of 100 glomeruli, increase in cells and substrates in the mesangium region, Grade 0: None, 10 mg/kg orally, 15 weeks, 10 mg/kg) was 15 and 43 and 100 and 16 and 75 and 8 and 93 and 87 and 7 and 68 and 20 and 84. The Mes1 ([4]; per mouse, of 100 glomeruli, mesangium region, Grade 1: Moderate or lower) was 72 and 57 and 0 and 81 and 25 and 66 and 7 and 13 and 46 and 31 and 43 and 16 and the Mes2 ([4]; per mouse, of 100 glomeruli, mesangium region, Grade 2: Moderate or higher) was 13 and 0 (6×) and 3 and 26 and 47 and 1 and 37.
